Data: PMC5743070 (The Journal of Biological Chemistry, 2017)
Like-named read-outs stand apart in the source and are kept apart here.

Tests used:
[1] = molecular target: T1, TTD (UHRF1_121–286) (Homo sapiens, UniProt Q96T88); test: DSF thermal shift of TTD; format: binding; conditions: 0.1 mg/ml TTD, absence and presence of 3 mM BPC, 0.1 M HEPES pH 7.5, 0.15 M NaCl, 5× Sypro Orange, 4 °C/min
T1 construct: UHRF1_121–286 corresponding to the TTD; made in house
T1 sequence (Q96T88 121-286): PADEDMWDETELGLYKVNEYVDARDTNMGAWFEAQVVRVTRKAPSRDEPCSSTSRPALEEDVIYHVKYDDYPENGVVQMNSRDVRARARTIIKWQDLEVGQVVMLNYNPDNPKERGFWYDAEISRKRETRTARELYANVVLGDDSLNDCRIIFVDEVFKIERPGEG
Procedure: DSF measurements were performed with a Light Cycler 480 II instrument from Roche Applied Science. TTD (UHRF1_121–286) was buffered at 0.1 mg/ml in 0.1 M HEPES (pH 7.5), 0.15 M NaCl, and 5× Sypro Orange. Sypro Orange was purchased from Invitrogen as a 5,000× stock solution, and it was diluted 1:1,000 to yield a 5× working concentration. Experiments were run in the absence and presence of 3 mM BPC. DSF was carried out by increasing the temperature from 20 to 95 °C at a heating rate of 4 °C/min, and data points were collected at 1 °C intervals. The temperature scan curves were fitted to a Boltzmann sigmoid function, and the Tm values were obtained from the midpoint of the transition as described previously ([47]).
(§1) Figure S5 (related to Fig. 4)
(§2) Binding of BPC in the groove of TTD. […]
(§3) labeled (at the N-terminus) H3K9me3(1-25) peptide, (B) ITC, and (C) DSF. (D) KD estimates of BPC bind-ing based on I211 and Y239 amide peak movement (where Δ(ppm) = ((ΔδHN)2 + (ΔδN/6.5)2 )1⁄2) in (1H-15N) HSQC spectra when the TTD is titrated with BPC. […]
(§4) as a function of TTD sequence resulting from BPC (blue) or PBR peptide (red) binding. (F) HSQC overlays […]
(§5) ment:protein), and PBR peptide ratios (bottom spectrum - from 1:1 to 5:1 peptide:protein). The protein con-centration was ~250 µM for all NMR experiments, and the DMSO concentration was 5% for NMR titrations […]

[2] = molecular target: T1, TTD (UHRF1_121–286); test: (1H-15N) HSQC NMR titration of TTD; format: binding; conditions: for Kd: HSQC titration, ~250 μM TTD, 5% DMSO, pH 7.5, 25 °C
Excerpt: We designed a fragment library containing 2,040 compounds that was initially screened against isolated TTD (UHRF1_121–286) using a fluorescence polarization (FP) assay that tracked the displacement of a N-terminally tagged H3K9me3 peptide (H3K9me3(1–25)). From this screen, eight putative TTD-binding hits were identified. […] Because of limited commercial availability of the tricyclic amine, we focused only on BPC. The binding of this compound occurs close to (or within) the Arg^296-binding pocket; we observe significant perturbation of Trp^238 and Phe^278 resonances that form part of the pocket, and in Gly^236, which is directly adjacent to it (Fig. 4A and supplemental Fig. S5). We also see chemical shift changes in non-surface exposed residues that are close to or are in contact with the groove.
NMR samples were buffered in 20 mM sodium phosphate (pH 7.5), 150 mM NaCl, 5 mM DTT, 5 mM β-mercaptoethanol, 2 mM TCEP, and 10 μM ZnSO4. The protein concentration was between 200 and 300 μM for all samples. The data were collected at 25 °C on Bruker spectrometers equipped with cryoprobes and operating at 500, 600, or 800 MHz. The assignment of backbone TTD–PHD resonances was accomplished using the ABACUS method ([29]) for which standard backbone and ^15N-edited NOESY spectra were collected using ^15N/^13C/^2H- or ^15N/^13C-labeled protein. All 3D experiments were acquired using non-uniform sampling and processed using the software MDDGUI ([30]) or qMDD ([31]). ^15N-Labeled TTD–PHD was used to acquire ^15N T1 and T2 relaxation and ^1H-^15N heteronuclear NOE measurements ([32]) collected using standard Bruker pulse schemes in an interleaved manner. For T1 measurements, the variable delay was set to 0.1, 0.4, 0.8, 1.5, 2.0, 2.5, 3.5, and 5 s. For T2 measurements, the variable delay was set to 16, 32, 48, 64, 80, 96, 128, and 144 ms. The D1 was 3 s for all experiments. Reported values were the average from two measurements. All spectra were processed using NMRPipe ([33]) and analyzed with SPARKY ([34]).
as §1, §2, §3, §4, §5
(1 picture or pasted object on this page, not shown here)

N=C(N)N1CCC(Cc2ccccc2)CC1 [BPC, 4-benzylpiperidine-1-carboximidamide]
ΔTm (thermal shift) [1]: 2.9 °C | binding site on TTD by amide peak movement ([2]; (1H-15N) HSQC spectra of TTD): occurs in the groove | Kd ([2]; residue I211, read-out: KD estimate from I211 amide peak movement): 78 µM | Kd ([2]; residue Y239, read-out: KD estimate from Y239 amide peak movement): 76 µM
